# Measurements as given in patent publication US8603498B2, “Lipo-phosphated or lipo-sulphated compound, compositions comprising it and topical uses thereof” (Sederma, S.A.S., priority 2010, dated 2013).
# Tested on: collagen I
# Assay: Synthesis of collagen I on human dermal fibroblast (immunolabeling)
# Assay type: cell-based
# Conditions: 10^−6%, positive control
# Experimental: Normal human fibroblasts (NHF) are cultivated in MW24 plates for 24 hours. The cells are contacted or not with the Lipo-Phosphomalate of the invention at various concentrations for 7 days. The synthesis of collagen I produced by the cells is then quantified by immunolabeling fixed on the layers using a specific antibody. Quantification by image analysis is then performed on the photos. TGF-β1 is used as positive control.
# An analysis of variance was performed on the data (cases treated compared with untreated cases). In the case of identity of variances, a Student't test was then performed on the means.
substance,measurement,value
TGF- β1: positive control for laminin and collagen I synthesis,collagen I % Variation/control,+1374%;
same,collagen I AFU mean,55 +/− 17.6 AFU
